Data on one compound can be found in ChEMBL document CHEMBL1155854, “Conformationally constrained farnesoid X receptor (FXR) agonists: Naphthoic acid-based analogs of GW 4064” (Bioorg Med Chem Lett, 2008).

pIC50: −log10 of the molar value. Active and inactive are the calls of the source. The calls are words filed in the database; no cut-off is given here. A value given as a limit tells only on which side of the number the result lay.

In general, clearance refers to the volume of plasma or blood freed of the substance per unit of time. The half-life is how long it takes for the measured level to halve. Usually pIC50 stands for the negative decadic logarithm of the IC50, by convention in mol/L. For orientation: solubility means how much of the substance goes into solution per volume. The term bioavailability denotes dose-corrected exposure relative to a reference, in per cent.

The subject of data set [1] is Rattus norvegicus. In words: Reduction of serum alkaline phosphatase level in alpha-naphthyl-isothiocyanate-induced rat acute cholestasis model at 100 to 300 mg/kg, po bid for 4 days dosed before 2 days induction by alpha-naphthyl-isothiocyanate. The data set is classed as functional, organism-based.
The target in data set [2] is T1, Peroxisome proliferator-activated receptor alpha (Homo sapiens, UniProt Q07869).
T1 sequence (Q07869 whole entry): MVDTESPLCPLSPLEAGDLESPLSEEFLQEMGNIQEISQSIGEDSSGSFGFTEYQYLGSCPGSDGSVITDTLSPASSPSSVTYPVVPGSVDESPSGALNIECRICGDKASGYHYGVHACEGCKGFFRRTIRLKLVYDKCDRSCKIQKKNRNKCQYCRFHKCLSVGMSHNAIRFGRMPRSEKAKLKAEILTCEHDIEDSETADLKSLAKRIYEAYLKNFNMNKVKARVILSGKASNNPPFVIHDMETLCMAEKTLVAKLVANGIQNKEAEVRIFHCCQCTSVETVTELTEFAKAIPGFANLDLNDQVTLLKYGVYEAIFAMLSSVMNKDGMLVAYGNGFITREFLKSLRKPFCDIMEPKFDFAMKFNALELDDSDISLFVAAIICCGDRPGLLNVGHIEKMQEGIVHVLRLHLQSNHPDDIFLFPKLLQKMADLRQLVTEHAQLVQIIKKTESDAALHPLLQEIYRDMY
Briefly: Agonist activity at PPARalpha by SPA assay. The data set is classed as functional.

A short description of data set [3]: Clearance in iv dosed cynomolgus monkey. The data set is classed as ADME, organism-based, Macaca fascicularis. The note with it: in vivo.
The nature of data set [4]: Clearance in iv dosed Beagle dog. Type of data set: ADME, organism-based, Canis lupus familiaris. The note with it: in vivo.
Data set [5] in a line: Half life in iv dosed Beagle dog. The note with it: in vivo. Type of data set: ADME, organism-based, Canis lupus familiaris.
The subject of data set [6] is Rattus norvegicus. In words: Reduction of serum alanine aminotransferase level in alpha-naphthyl-isothiocyanate-induced rat acute cholestasis model at 100 to 300 mg/kg, po bid for 4 days dosed before 2 days induction by alpha-naphthyl-isothiocyanate. The data set is classed as functional, organism-based.
Another data set concerns the target Estrogen receptor beta (Homo sapiens, UniProt Q92731). Briefly: Agonist activity at ERbeta by fluorescence polarization assay. The data set is classed as functional. For orientation: Fluorescence polarisation rises when a labelled molecule tumbles more slowly, as on binding a larger partner.
Data set [7] has as its system Rattus norvegicus. In words: Reduction of serum bile acids level in alpha-naphthyl-isothiocyanate-induced rat acute cholestasis model at 100 to 300 mg/kg, po bid for 4 days dosed before 2 days induction by alpha-naphthyl-isothiocyanate. The data set is classed as functional, organism-based.
Data set [8] can be described thus: Volume of distribution at steady state in iv dosed rat. Type of data set: ADME, organism-based. The note with it: in vivo, read-out: Vdss.
A short description of data set [9]: Volume of distribution at steady state in iv dosed Beagle dog. Type of data set: ADME, organism-based, Canis lupus familiaris. The note with it: in vivo, read-out: Vdss.
A further data set has as its target T2, Estrogen receptor (Homo sapiens, UniProt P03372).
T2 sequence (P03372 whole entry): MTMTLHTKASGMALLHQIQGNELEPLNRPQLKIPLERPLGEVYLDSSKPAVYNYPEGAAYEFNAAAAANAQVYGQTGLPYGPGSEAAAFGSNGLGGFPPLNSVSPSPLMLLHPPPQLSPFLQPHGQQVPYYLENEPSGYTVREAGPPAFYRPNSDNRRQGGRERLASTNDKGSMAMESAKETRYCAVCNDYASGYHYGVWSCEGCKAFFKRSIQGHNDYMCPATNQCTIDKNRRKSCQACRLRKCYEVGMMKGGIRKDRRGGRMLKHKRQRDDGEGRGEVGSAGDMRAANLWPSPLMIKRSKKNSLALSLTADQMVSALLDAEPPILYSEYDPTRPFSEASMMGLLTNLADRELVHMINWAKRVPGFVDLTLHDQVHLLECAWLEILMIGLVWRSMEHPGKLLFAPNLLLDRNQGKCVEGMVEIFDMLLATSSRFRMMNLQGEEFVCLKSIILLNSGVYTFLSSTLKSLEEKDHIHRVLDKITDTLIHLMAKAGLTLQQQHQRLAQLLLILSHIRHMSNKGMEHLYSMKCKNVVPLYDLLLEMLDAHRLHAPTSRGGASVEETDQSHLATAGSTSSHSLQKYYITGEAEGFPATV
Briefly: Agonist activity at ERalpha by fluorescence polarization assay. The data set is classed as functional.

Data set [10] has as its target T3, Oxysterols receptor LXR-beta (Homo sapiens, UniProt P55055).
T3 sequence (P55055 whole entry): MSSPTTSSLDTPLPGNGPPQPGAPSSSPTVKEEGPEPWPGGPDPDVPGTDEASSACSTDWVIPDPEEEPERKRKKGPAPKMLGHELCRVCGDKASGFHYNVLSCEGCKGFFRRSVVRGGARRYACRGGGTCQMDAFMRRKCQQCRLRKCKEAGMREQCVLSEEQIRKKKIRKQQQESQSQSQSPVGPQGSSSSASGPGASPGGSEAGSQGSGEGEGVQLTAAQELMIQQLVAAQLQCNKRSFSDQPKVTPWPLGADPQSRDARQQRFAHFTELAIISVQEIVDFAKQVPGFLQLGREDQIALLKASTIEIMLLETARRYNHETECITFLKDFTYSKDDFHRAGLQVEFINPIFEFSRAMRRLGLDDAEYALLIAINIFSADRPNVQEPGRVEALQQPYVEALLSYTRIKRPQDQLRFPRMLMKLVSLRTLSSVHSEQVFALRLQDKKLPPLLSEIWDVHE
In words: Agonist activity at LXRbeta by transient transfection assay. The data set is classed as functional.

For a further data set, the target named is Cytochrome P450 3A4 (Homo sapiens, UniProt P08684). Briefly: Inhibition of CYP3A4 in pooled human liver microsome using atrovastatin substrate. The data set is classed as ADME, microsomes. On the technique in general: Liver microsomes are vesicles of endoplasmic reticulum, rich in cytochrome P450 enzymes.
Cytochrome P450 3A4, sequence (P08684 whole entry): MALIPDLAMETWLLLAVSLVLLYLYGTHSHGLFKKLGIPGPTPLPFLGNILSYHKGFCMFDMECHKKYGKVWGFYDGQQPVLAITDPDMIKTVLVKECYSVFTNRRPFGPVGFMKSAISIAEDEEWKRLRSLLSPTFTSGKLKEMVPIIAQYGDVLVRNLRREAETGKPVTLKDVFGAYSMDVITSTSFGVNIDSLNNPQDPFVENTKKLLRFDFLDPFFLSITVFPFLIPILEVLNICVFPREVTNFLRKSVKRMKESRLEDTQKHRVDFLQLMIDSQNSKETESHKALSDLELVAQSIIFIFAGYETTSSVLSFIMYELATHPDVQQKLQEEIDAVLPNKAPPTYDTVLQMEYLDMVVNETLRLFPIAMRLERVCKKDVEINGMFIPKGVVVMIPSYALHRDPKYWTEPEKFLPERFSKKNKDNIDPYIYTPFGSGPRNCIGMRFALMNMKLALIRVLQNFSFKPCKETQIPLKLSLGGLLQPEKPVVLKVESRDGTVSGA
Data set [11] can be described thus: Solubility in simulated gastric fluid at pH 1. The data set is classed as physicochemical. The note with it: simulated gi fluid.
A further data set concerns the target T4, Glucocorticoid receptor (Homo sapiens, UniProt P04150).
T4 sequence (P04150 whole entry): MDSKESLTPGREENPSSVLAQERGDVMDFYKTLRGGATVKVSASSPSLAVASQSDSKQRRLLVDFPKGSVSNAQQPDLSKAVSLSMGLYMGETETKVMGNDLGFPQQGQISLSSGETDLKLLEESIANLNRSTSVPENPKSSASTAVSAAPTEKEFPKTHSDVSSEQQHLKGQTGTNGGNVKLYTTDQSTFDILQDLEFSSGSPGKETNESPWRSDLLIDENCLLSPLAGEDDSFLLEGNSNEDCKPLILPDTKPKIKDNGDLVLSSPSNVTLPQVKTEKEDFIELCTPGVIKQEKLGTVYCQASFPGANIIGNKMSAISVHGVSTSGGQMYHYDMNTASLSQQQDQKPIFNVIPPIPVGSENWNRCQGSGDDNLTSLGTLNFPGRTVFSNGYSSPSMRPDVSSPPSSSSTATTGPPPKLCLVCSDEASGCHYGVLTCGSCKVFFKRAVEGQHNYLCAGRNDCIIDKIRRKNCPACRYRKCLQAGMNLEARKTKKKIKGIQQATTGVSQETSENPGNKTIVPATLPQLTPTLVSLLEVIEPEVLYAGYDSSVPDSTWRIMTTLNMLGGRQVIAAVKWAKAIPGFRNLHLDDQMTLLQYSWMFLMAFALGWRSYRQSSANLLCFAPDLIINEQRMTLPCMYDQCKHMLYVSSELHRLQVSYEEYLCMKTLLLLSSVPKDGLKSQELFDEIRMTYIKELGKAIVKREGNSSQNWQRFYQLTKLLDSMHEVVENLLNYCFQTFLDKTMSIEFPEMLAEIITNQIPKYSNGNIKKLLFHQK
Briefly: Agonist activity at GR by fluorescence polarization assay. The data set is classed as functional.

A short description of data set [12]: Oral bioavailability in mouse at 30 mg/kg. The data set is classed as ADME, organism-based. The note with it: in vivo.
Data set [13] is described as follows: Half life in iv dosed rat. Type of data set: ADME, organism-based. The note with it: in vivo.

Estrogen receptor beta, sequence (Q92731 whole entry): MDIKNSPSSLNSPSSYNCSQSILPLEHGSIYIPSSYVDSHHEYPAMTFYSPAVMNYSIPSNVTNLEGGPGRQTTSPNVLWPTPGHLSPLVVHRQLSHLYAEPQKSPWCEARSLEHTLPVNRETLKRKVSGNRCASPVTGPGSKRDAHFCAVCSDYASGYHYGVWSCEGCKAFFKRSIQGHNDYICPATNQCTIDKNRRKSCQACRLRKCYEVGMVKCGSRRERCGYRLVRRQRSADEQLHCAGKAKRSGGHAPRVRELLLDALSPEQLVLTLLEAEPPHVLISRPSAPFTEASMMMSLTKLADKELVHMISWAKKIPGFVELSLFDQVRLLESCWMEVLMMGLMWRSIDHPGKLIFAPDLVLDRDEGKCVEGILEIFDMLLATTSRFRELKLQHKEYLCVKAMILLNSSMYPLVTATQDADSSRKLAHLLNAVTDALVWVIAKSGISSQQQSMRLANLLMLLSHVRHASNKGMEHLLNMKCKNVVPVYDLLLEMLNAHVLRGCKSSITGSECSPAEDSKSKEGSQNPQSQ

As for `CC(C)c1onc(-c2c(Cl)cccc2Cl)c1COc1ccc(-c2ccc3c(C(=O)O)cccc3c2)cc1`, the outcome in the data set with Rattus norvegicus [1], in the data set with Rattus norvegicus [6] and with Rattus norvegicus [7] was Active. For the same compound, the XC50 in data set [2] is more than 10 µM; at Estrogen receptor beta, more than 20 µM; on Estrogen receptor, more than 20 µM; in [10], more than 20 µM; on Glucocorticoid receptor it was more than 20 µM. Also, the values for the clearance in [3] and in [4] were 5.5 mL/min/kg and 2 mL/min/kg, respectively. The half-life in data set [5] was found to be 4.17 h; in data set [13], 0.4 h. Also, the Vd stood at 1 L/kg in data set [8] and 0.48 L/kg in data set [9]. The pIC50 at Cytochrome P450 3A4 was 5.34. The same compound had a solubility in [11] of less than 1 ng/mL. The same compound gave a bioavailability in [12] of 3.9%.
